{"source": "patent US9981961B2", "about": "“Deoxycytidine kinase inhibitors” (The Regents of the University of California, priority 2013, dated 2018)", "key": {"in vitro": {"assay": "in vitro", "settings": "human, microsomes"}, "[1]": {"assay": "Tolerability in NSG mice (body weight, peripheral blood counts)", "assay_type": "in vivo", "settings": "twice/day for 7 days, alone or in combination with dT", "excerpt": "All mice were anesthetized and whole blood was obtained through cardiac puncture. For peripheral blood counts, samples were collected in tubes containing EDTA and submitted to UCLA Division of Lab Animal Medicine for analysis."}, "[2]": {"assay": "Pharmacokinetics of DI-39 in plasma and tumor tissue (LC/MS/MS-MRM)", "assay_type": "in vivo", "settings": "mouse, ip", "experimental": "To determine the pharmacokinetic profile of DI-39, C57Bl/6 female mice were dosed with DI-39 via intraperitoneal injection following the protocol that was described previously (Murphy et al., 2013). Dose formulation include 10% DMSO and 40% Captisol (SBE-β-CD, a polyanionic variably substituted sulfobutyl ether of β-cyclodextrin, (Stella and He, 2008)) in water. Approximately 75 μL of whole blood was obtained at various time points starting 5 to 360 minutes through retro-orbital sinus bleed using hematocrit capillary tubes. Approximated values of the Area Under the Curve (AUC), clearance rate (CL), half-life (T1/2), maximum concentration in the plasma (Cmax) and time to reach the maximum concentration (Tmax) were calculated using Boomer/Multi-Forte P K Functions from Microsoft Excel.\nFor the DI-39 tumoral and plasma uptake study using LC/MS/MS-MRM, tumor-bearing NSG mice were injected with 50 mg/kg DI-39 intraperitoneally at 0, 2, 4, 8 and 12 hours prior to sacrifice. […] The ion transitions for DI-39 and DI-70 (525.2→383.3 and 550.2→408.2 respectively) were recorded under previously optimized conditions. […]"}, "Solubility statement": {"assay": "Solubility statement", "assay_type": "physicochemical"}, "[3]": {"tested_on": "dCTP and dTTP pools of CEM cells", "assay": "Intracellular dNTP pool measurement in CEM cells", "assay_type": "cell-based, human", "settings": "24 hr; for decrease of dCTP pool: DI-39 1 μM, dT 50 μM, or both"}, "dCK activity in liver": {"target": "dCK activity in liver (Mus musculus, UniProt P43346)", "sequence (P43346 whole entry)": "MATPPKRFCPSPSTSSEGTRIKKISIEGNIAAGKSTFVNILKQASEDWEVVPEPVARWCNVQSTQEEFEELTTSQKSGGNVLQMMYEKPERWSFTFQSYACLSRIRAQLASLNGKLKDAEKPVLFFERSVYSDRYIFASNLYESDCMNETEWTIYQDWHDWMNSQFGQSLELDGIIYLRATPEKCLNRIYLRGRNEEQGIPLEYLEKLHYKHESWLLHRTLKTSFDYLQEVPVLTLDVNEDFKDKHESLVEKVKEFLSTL", "assay": "18F-L-FAC PET liver assay of in vivo dCK inhibition", "settings": "mice", "method": "Evaluation of In Vivo Inhibition of dCK Activity Via a New PET PD Assay. […] Four hours later, treated mice were injected intravenously with ^18F-L-FAC; one hour after probe injection, mice were imaged by mPET/CT. The readout for the PET PD assay was the reduction in the accumulation of ^18F-L-FAC in dCK-positive tissues in dCK inhibitor versus vehicle treated mice. […] Since the reproducibility in the dCK-dependent tissue retention of ^18F-L-FAC was most consistent in the liver^27, we chose to quantify ^18F-L-FAC liver retention in order to compare the in vivo efficacy of the various dCK inhibitors.\nIn Vivo MicroPET/CT Imaging Studies. […] Four hours post-treatment mice were injected intravenously with 70 μCi of ^18F-L-FAC. For all mPET/CT studies, a 1 h interval was allowed between probe administration and mPET/CT scanning (Inveon, Siemens Medical Solutions USA Inc.; microCAT, Imtek Inc.). Static mPET images were acquired for 600 s. Images were analyzed using OsiriX Imaging Software Version 3.8."}, "dCK in CCRF-CEM cells": {"target": "dCK in CCRF-CEM cells (Homo sapiens, UniProt P27707)", "sequence (P27707 whole entry)": "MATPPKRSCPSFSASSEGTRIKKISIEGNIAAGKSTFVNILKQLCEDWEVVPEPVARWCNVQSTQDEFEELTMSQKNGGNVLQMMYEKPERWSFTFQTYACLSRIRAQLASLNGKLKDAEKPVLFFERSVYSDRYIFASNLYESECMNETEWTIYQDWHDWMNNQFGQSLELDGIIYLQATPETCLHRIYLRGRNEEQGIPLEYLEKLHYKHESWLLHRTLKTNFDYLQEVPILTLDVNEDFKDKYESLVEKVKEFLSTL", "assay": "cell-based", "method": "These were performed in CCRF-CEM acute lymphoblastic leukemia cells as previously described.^8, 9\ndCK Uptake Assay Performed in Cell Culture. […] For the uptake assays cells were seeded at a density of 50,000 cells/well in Millipore MultiScreen GV 96 well plates. […] After 1 h at 37° C., cells were washed four times with ice cold phosphate-buffered saline (PBS) using the Millipore Vacuum Manifold. The amount of incorporated probe was measured by scintillation counting with the PerkinElmer Microbeta."}, "[4]": {"target": "dCK activity in CCRF-CEM tumor xenografts (Homo sapiens, UniProt P27707)", "sequence (P27707 whole entry)": "as above", "method": "Four hours post-treatment mice were injected intravenously with 70 μCi of ^18F-L-FAC. For all mPET/CT studies, a 1 h interval was allowed between probe administration and mPET/CT scanning (Inveon, Siemens Medical Solutions USA Inc.; microCAT, Imtek Inc.). Static mPET images were acquired for 600 s. Images were analyzed using OsiriX Imaging Software Version 3.8."}, "[5]": {"tested_on": "NSP-produced dCTP incorporated into tumor DNA", "assay": "[U-13C/15N]-dC incorporation into DNA of CEM tumor xenografts", "assay_type": "in vivo, NSG mice", "settings": "dCK^wt CEM tumors, dT 2 g/kg single dose, 4 hr", "experimental": "For the in vivo studies, tumor-bearing mice were injected with 200 μL, of 2.5 mM [U-^13C/^15N]-deoxycytidine 30 min prior to sacrifice. Tumors were harvested, mechanically digested into single cells, and cell counts were obtained. DNA extraction was carried out as described above.\nDNA hydrolysis samples were diluted 1/1 with solvent A (water/formic acid, 100/0.2, v/v) and analyzed using a modified version of a previously reported method (Cohen et al., 2009) in which aliquots of the solution (10 μL) were injected onto a porous graphitic carbon column (Thermo Hypercarb, 100×2.1 mm, 3 micron particle size) equilibrated in solvent A and eluted (300 μL/min) with an increasing concentration of solvent B (acetonitrile/min/% B; 0/0, 6/60, 6.1/100, 9/100, 9.1/0, 10/0). […] After verification of retention times using authentic standards, the peak areas of the MH^+→fragment ion transitions for the dC isotopomers (M0, 228.1→112.1; M1, 229.1→112.1; M2, 230.1→112.1; M3, 231.1→112.1; M4, 232.1→112.1; M5, 233.1→112.1; M6, 234.1→113.1; M7, 235.1→114.1; M8, […]; […]; M11, 239.1→118.1; and M12, 240.1→119.1) were recorded with instrument manufacturer-supplied software (Agilent MassHunter), and normalized to cell number. The dC isotopomers of M3 through M8 for the DNP and M11 through M12 for NSP were detected and used for data analysis."}, "[6]": {"tested_on": "NSP-produced dCTP incorporated into DNA of CEM cells", "assay": "Stable isotope labeling of dCTP biosynthesis in CEM cells", "assay_type": "cell-based, human", "settings": "12 hr labeling, dT treatment"}, "[7]": {"tested_on": "CEM leukemic cells in bone marrow", "assay": "Systemic T-ALL model (CEM cells injected intravenously)", "assay_type": "in vivo, NSG mice", "settings": "dT 2 g/kg every 12 hr", "method": "Ten μL of blood was collected via tail vein nick and mixed with 2 μL 50 mM EDTA. One μL of blood was mixed with 99 μL PBS and transferred to a 96 well OptiPlate (Perkin Elmer). One hundred μL of 20 μM coelenterazine substrate was mixed and luciferase activity was measured using a plate luminescence microplate reader SpectraMax L (Molecular Devices). Systemic tumor models were established by intravenous injection of 10^6 CEM dCK^wt-sGluc-GFP or dCK^low-sGluc-GFP in 100 μL RPMI."}, "[8]": {"assay": "Plasma thymidine level after dT injection", "assay_type": "in vivo, NSG mice", "experimental": "NOD SCID gamma (NSG) mice were injected with 2 g/kg dT intraperitoneally; 75 μL of whole blood was obtained at 0, 2, 4, and 8 hr through retro-orbital sinus bleed using hematocrit capillary tubes. Whole blood was immediately centrifuged at 3000× g for 5 min to isolate serum; 30 μL of serum was mixed with 1 mL methanol:acetonitrile (1:9), vortexed for 2 min, centrifuged at 14,000× g for 4 min at 4° C. Extraction was repeated and the pooled supernatant was dried under vacuum centrifugation. The residue was dissolved in 100 μL water, filtered and eluted through a Waters microBondapak C18 column under a gradient mobile phase from 2% methanol to 50% methanol over ten minutes at a flow rate of 1.5 mL/min."}, "[9]": {"settings": "IC50, Example 4 list, assay and unit inferred, values correspond to the CEM 3H-dC uptake data of Tables 3 and 7"}}}
{"smiles": "COc1ccc(-c2nc(CSc3nc(N)cc(N)n3)c(C)s2)cc1OCCF", "note": "[Compound 15a, 2-(((2-(3-(2-fluoroethoxy)-4-methoxyphenyl)-5-methylthiazol-4-yl)methyl)thio)pyrimidine-4,6-diamine]", "values": [{"measurement": "half-life at 1 μM", "setting": "in vitro", "value": 16.3, "unit": "min"}, {"measurement": "microsomal CLint at 1 μM", "setting": "in vitro", "value": 142, "unit": "µL/min/mg"}]}
{"smiles": "CCCc1sc(-c2ccc(OC)c(OCCNS(C)(=O)=O)c2)nc1CSc1nc(N)cc(N)n1", "note": "[Compound 37, N-(2-(5-(4-(((4,6-diaminopyrimidin-2-yl)thio)methyl)-5-propylthiazol-2-yl)-2-methoxyphenoxy)ethyl)methanesulfonamide]", "values": [{"measurement": "effect on body weight", "setting": "[1]", "value": "did not affect body weight"}, {"measurement": "effects on RBCs, hemoglobin, platelets or neutrophils", "setting": "[1]", "value": "no detectable effects"}, {"measurement": "half-life", "setting": "[2]; female, plasma, C57Bl/6 mice, intraperitoneal injection", "value": "~50", "unit": "min"}, {"measurement": "concentration at 8 hr", "setting": "[2]; 8 hr after single dose administration, 50 mg/kg intraperitoneal, CEM tumor-bearing NSG mice, read-out: drug present in tumor tissues", "value": "~0.015", "unit": "µM"}, {"measurement": "solubility in aqueous saline solutions", "setting": "Solubility statement", "value": "limited solubility"}, {"measurement": "decrease of dCTP pool", "setting": "[3]", "value": "~30", "unit": "%"}]}
{"smiles": "COCCOCCOCCOc1cc(-c2nc(C(C)Sc3nc(N)cc(N)n3)c(C3CC3)s2)ccc1OC", "note": "(centres unmarked) [Compound S27]", "values": [{"measurement": "outcome in the PET L-FAC liver assay", "setting": "dCK activity in liver", "value": "failed"}, {"measurement": "IC50", "setting": "dCK in CCRF-CEM cells; IC50 (nM), Table 3, inhibition of 3H-deoxycytidine (dCyd) uptake in CEM cells, mean ± SD of n ≥ 2 unless (n = 1)", "value": 3.7, "unit": "nM"}, {"measurement": "IC50", "setting": "dCK in CCRF-CEM cells; IC50, Example 5 list, assay and unit inferred, values correspond to the CEM data of Table 3", "value": 2.47, "unit": "nM"}]}
{"smiles": "CCCc1sc(-c2ccnc(OCCNS(C)(=O)=O)c2)nc1CSc1nc(N)cc(N)n1", "note": "[DI-46]", "values": [{"measurement": "IC50", "setting": "dCK in CCRF-CEM cells; [9]", "value": 1180, "unit": "nM"}]}
{"smiles": "COc1cc(-c2cc(CSc3nc(N)cc(N)n3)sc2C)ccc1OCCF", "note": "[DI-63]", "values": [{"measurement": "IC50", "setting": "dCK in CCRF-CEM cells; [9]", "value": 1580, "unit": "nM"}]}
{"smiles": "COCCOCCOCCOc1cc(-c2nc(CSc3nc(N)cc(N)n3)c(C(Sc3nc(N)cc(N)n3)c3ccccc3)s2)ccc1OC", "note": "(centres unmarked) [DI-78]", "values": [{"measurement": "IC50", "setting": "dCK in CCRF-CEM cells; [9]", "value": 1660, "unit": "nM"}]}
{"smiles": "Cc1cn([C@H]2C[C@H](O)[C@@H](CO)O2)c(=O)[nH]c1=O", "note": "[dT, thymidine]", "values": [{"measurement": "increase of 18F-L-FAC accumulation", "setting": "[4]", "value": "~20", "unit": "%"}, {"measurement": "fold increase of labeled dCTP incorporation into DNA", "setting": "[5]", "value": "~3", "unit": "fold"}, {"measurement": "fold increase over baseline of utilization of NSP-produced dCTP for DNA synthesis", "setting": "[6]", "value": "more than 3 fold"}, {"measurement": "fold reduction in percentage of leukemic cells in bone marrow relative to vehicle and DI-39 treated groups", "setting": "[7]", "value": "~7", "unit": "fold"}, {"measurement": "fold increase of dTTP", "setting": "[3]; 50 μM dT", "value": "~20", "unit": "fold"}, {"measurement": "fold reduction of dCTP", "setting": "[3]; 50 μM dT", "value": "~5", "unit": "fold"}, {"measurement": "decrease of dCTP pool", "setting": "[3]", "value": "~30", "unit": "%"}, {"measurement": "concentration at 8 hr", "setting": "[8]; NOD SCID gamma (NSG), mouse, plasma, ip, at 8 hr after single injection 2 g/kg intraperitoneally, read-out: plasma dT, declined to baseline values", "value": "~10", "unit": "µM"}, {"measurement": "plasma dT peak", "setting": "[8]; two hours after single injection 2 g/kg intraperitoneally", "value": 1.5, "unit": "mM"}]}
